Results on 91 compounds are retold here after ChEMBL document CHEMBL2218064, “Structure-activity relationship data for chemical series of antagonists of the P2X7 receptor (Supplementary Bioactivity Data for publication CHEMBL1157114)”.

Molecules are shown by their SMILES.

This assay deals with T1, P2X purinoceptor 7 (Homo sapiens, UniProt Q99572).
T1 sequence (Q99572 whole entry): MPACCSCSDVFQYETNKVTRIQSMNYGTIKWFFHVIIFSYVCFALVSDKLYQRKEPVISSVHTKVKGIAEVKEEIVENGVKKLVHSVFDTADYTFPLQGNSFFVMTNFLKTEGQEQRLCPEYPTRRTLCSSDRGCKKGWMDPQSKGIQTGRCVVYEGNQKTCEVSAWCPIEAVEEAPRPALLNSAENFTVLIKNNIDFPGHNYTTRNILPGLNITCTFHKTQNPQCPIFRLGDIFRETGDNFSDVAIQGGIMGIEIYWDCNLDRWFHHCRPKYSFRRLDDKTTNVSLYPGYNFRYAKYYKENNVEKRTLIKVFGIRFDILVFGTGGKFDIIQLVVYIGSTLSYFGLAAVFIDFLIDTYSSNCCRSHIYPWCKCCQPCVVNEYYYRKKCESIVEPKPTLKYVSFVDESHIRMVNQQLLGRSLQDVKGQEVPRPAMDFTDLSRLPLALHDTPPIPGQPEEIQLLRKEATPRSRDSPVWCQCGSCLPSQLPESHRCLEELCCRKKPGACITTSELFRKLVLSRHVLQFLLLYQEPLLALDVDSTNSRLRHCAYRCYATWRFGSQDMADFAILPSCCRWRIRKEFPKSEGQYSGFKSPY
Kind of assay: SUPPLEMENTARY: Inhibition of human P2X7 receptor assessed as inhibition of ethidium bromide accumulation. Same assay as CHEMBL1103860.

As for `CCN1C(=O)C(C)(C)C[C@H]1C(=O)NCc1ccc(F)cc1Cl`, the 50% inhibitory concentration (IC50) is 50.1 nM.
As for `O=C1C(=O)N(c2cccc3c2CCCC3)CCN1Cc1ccc(F)cc1Cl`, the IC50 is 50.1 nM.
Consider `O=C1C(=O)N(c2cccc(N3CCOCC3)c2)CCN1Cc1ccc(F)cc1Cl`, for which the IC50 is 251 nM.
On to `O=C1C(=O)N(c2ccccc2N2CCOCC2)CCN1Cc1ccc(F)cc1Cl`, for which the IC50 is 126 nM.
The figure for `CN1C(=O)N(c2ncccn2)CC1C(=O)NCc1cccc(C(F)(F)F)c1Cl` (stereo unspecified) is 3.16 nM; for `O=C1C(=O)N(c2cccc3cccnc23)CCN1Cc1ccc(F)cc1Cl` it is 1000 nM.
With `Cc1ccccc1N1CCN(C(C)c2ccc(Cl)cc2Cl)C(=O)C1=O` (stereo unspecified), the IC50 was 31.6 nM.
The figure for `CN1C(=O)N(C2CCNCC2)CC1C(=O)NCc1cccc(C(F)(F)F)c1Cl` (stereo unspecified) is 31.6 nM; for `Cn1ncc(I)c1CC(=O)NCc1ccc(Cl)cc1Cl` it is 39.8 nM.
`O=C1C(=O)N(c2ccc3c(c2)OCCO3)CCN1Cc1ccc(F)cc1Cl`: the 50% inhibitory concentration (IC50) is 200 nM.
The value for `Cc1ccccc1N1CCN(Cc2c(F)cccc2Cl)C(=O)C1=O` was 1000 nM; that for `Cc1ccc(N2CCN(Cc3ccc(F)cc3Cl)C(=O)C2=O)c(C)c1` was 79.4 nM.
Consider `Cc1ccc(C)c(N2CCN(Cc3ccc(F)cc3Cl)C(=O)C2=O)c1`, for which the IC50 was 7.94 nM.
For the compound `Cc1ccc(N2CCN(Cc3ccc(F)cc3Cl)C(=O)C2=O)cc1C`, the 50% inhibitory concentration (IC50) was 501 nM.
In the case of `Cc1cc(C)cc(N2CCN(Cc3ccc(F)cc3Cl)C(=O)C2=O)c1`, the 50% inhibitory concentration (IC50) was 1000 nM.
As to `CN1C(=O)N(c2ccccn2)CC1C(=O)NCc1cccc(C(F)(F)F)c1Cl` (stereo unspecified), the IC50 was 7.94 nM.
The figure for `CN1C(=O)N(c2cccnc2)CC1C(=O)NCc1cccc(C(F)(F)F)c1Cl` (stereo unspecified) is 12.6 nM; for `Cc1ccccc1N1CCN(Cc2c(C)cc(Cl)cc2Cl)C(=O)C1=O` it is 5.01 nM.
For the compound `Cc1ccccc1CN1CCN(c2ccccc2C)C(=O)C1=O`, the IC50 is 501 nM.
Regarding `Cc1ccccc1N1CCN(Cc2ccc(Cl)cc2)C(=O)C1=O`, the IC50 was 398 nM.
For `Cc1ccccc1N1CCN(Cc2cc(Cl)ccc2Cl)C(=O)C1=O`, the IC50 is 1000 nM.
In the case of `Cc1cc(F)ccc1CN1CCN(c2ccccc2C)C(=O)C1=O`, the IC50 was 158 nM.
On to `Cc1c(F)cccc1N1CCN(Cc2ccc(F)cc2Cl)C(=O)C1=O`, for which the half-inhibitory concentration (IC50) was 100 nM.
In the case of `COc1c(F)cccc1N1CCN(Cc2ccc(F)cc2Cl)C(=O)C1=O`, the half-inhibitory concentration (IC50) is 79.4 nM.
Take `Cc1ccc(F)cc1N1CCN(Cc2ccc(F)cc2Cl)C(=O)C1=O`: the IC50 is 39.8 nM.
As to `Cc1ccc(C(F)(F)F)cc1N1CCN(Cc2ccc(F)cc2Cl)C(=O)C1=O`, the IC50 is 50.1 nM.
Turning to `COc1ccc(C)c(N2CCN(Cc3ccc(F)cc3Cl)C(=O)C2=O)c1`, the IC50 was 10 nM.
As for `COc1ccc(F)cc1N1CCN(Cc2ccc(F)cc2Cl)C(=O)C1=O`, the IC50 was 100 nM.
As to `Cc1ccccc1N1CCN(C(=O)c2cccc(Cl)c2Cl)CC1=O`, the half-inhibitory concentration (IC50) was 15.8 nM.
For `N#Cc1c(F)cccc1N1CCN(Cc2ccc(F)cc2Cl)C(=O)C1=O`, the IC50 was 631 nM.
For the compound `Cc1ccccc1CN1CCN(c2cccc(Cl)c2Cl)C(=O)C1=O`, the IC50 is 251 nM.
Regarding `O=C1C(=O)N(c2cccc(Cl)c2Cl)CCN1Cc1ccccc1Cl`, the IC50 is 200 nM.
The figure for `O=C1C(=O)N(c2cccc(Cl)c2Cl)CCN1Cc1cccc(Cl)c1` is 501 nM; for `O=C1C(=O)N(c2cccc(Cl)c2Cl)CCN1Cc1ccc(Cl)cc1` it is 794 nM; for `O=C1C(=O)N(c2cccc(Cl)c2Cl)CCN1Cc1ccc(F)cc1Cl` it is 100 nM.
With `Cc1cccc(N2C[C@@H](C(=O)NCc3ccc(F)cc3Cl)N(C)C2=O)n1`, the IC50 is 398 nM.
For the compound `Cc1ccc(N2C[C@@H](C(=O)NCc3cccc(C(F)(F)F)c3Cl)N(C)C2=O)cn1`, the half-maximal inhibitory concentration (IC50) is 10 nM.
In the case of `Cc1ccc(N2C[C@@H](C(=O)NCc3ccc(F)cc3Cl)N(C)C2=O)cn1`, the half-maximal inhibitory concentration (IC50) is 63.1 nM.
The figure for `O=C1C(=O)N(c2cccc(I)c2)CCN1Cc1ccc(F)cc1Cl` is 398 nM; for `Cc1ncccc1N1C[C@@H](C(=O)NCc2ccc(F)cc2Cl)N(C)C1=O` it is 50.1 nM.
As to `CN1C(=O)NC[C@H]1C(=O)NCc1ccc(F)cc1Cl`, the IC50 is 39.8 nM.
As for `CN1C(=O)N(c2ccccn2)C[C@H]1C(=O)NCc1cccc(C(F)(F)F)c1Cl`, the IC50 was 6.31 nM.
`CN1C(=O)N(c2ccccn2)C[C@H]1C(=O)NCc1ccc(F)cc1Cl`: the IC50 was 79.4 nM.
On to `CN1C(=O)N(c2cccnc2)C[C@H]1C(=O)NCc1ccc(F)cc1Cl`, for which the IC50 was 50.1 nM.
In the case of `Cc1cnccc1N1CCN(Cc2ccc(F)cc2Cl)C(=O)C1=O`, the half-inhibitory concentration (IC50) was 501 nM.
With `COc1cccc(N2CCN(Cc3ccc(F)cc3Cl)C(=O)C2=O)c1C`, the 50% inhibitory concentration (IC50) is 25.1 nM.
For `O=C1C(=O)N(c2ccccc2Br)CCN1Cc1ccc(F)cc1Cl`, the 50% inhibitory concentration (IC50) is 12.6 nM.
Turning to `Cc1ccccc1N1CCN(C(=O)c2ccc(F)cc2Cl)CC1=O`, the IC50 was 501 nM.
The value for `Cc1cccc(N2CCN(Cc3ccc(F)cc3Cl)C(=O)C2=O)c1N1CCOCC1` was 50.1 nM; that for `O=C1C(=O)N(c2cccc(Cl)c2N2CCOCC2)CCN1Cc1ccc(F)cc1Cl` was 39.8 nM; that for `Cc1ccc(N2CCOCC2)cc1N1CCN(Cc2ccc(F)cc2Cl)C(=O)C1=O` was 31.6 nM.
On to `Cc1ccc(C)c(N2CCN(Cc3ccc(F)cc3Cl)C(=O)C2=O)n1`, for which the half-maximal inhibitory concentration (IC50) was 200 nM.
In the case of `Cc1ccccc1N1CCN(C(=O)c2ccc(Cl)cc2Cl)CC1=O`, the IC50 was 63.1 nM.
The figure for `O=C(c1cccc(Cl)c1Cl)N1CCN(c2ccc(F)cc2)C(=O)C1` is 100 nM.
On to `Cc1c(CN2CCOCC2)cccc1N1CCN(Cc2ccc(F)cc2Cl)C(=O)C1=O`, for which the 50% inhibitory concentration (IC50) is 100 nM.
`Cc1ncccc1N1CCN(Cc2ccc(F)cc2Cl)C(=O)C1=O`: the IC50 is 631 nM.
On to `Cc1ccccc1N1CCN(C(=O)c2cccc(C(F)(F)F)c2Cl)CC1=O`, for which the IC50 is 10 nM.
In the case of `O=C(c1cccc(Cl)c1Cl)N1CCN(c2cccc(Cl)c2)C(=O)C1`, the half-maximal inhibitory concentration (IC50) was 100 nM.
For `Cc1cccnc1N1CCN(Cc2ccc(F)cc2Cl)C(=O)C1=O`, the concentration for half-maximal inhibition (IC50) was 631 nM.
`CN1C(=O)N(c2ncccn2)C[C@H]1C(=O)NCc1ccc(Cl)cc1Cl`: the 50% inhibitory concentration (IC50) was 6.31 nM.
Turning to `CN1C(=O)N(c2ncccn2)C[C@H]1C(=O)NCc1ccc(F)cc1Cl`, the half-inhibitory concentration (IC50) is 25.1 nM.
Take `CCN1[C@H](C(=O)NCc2cccc(C(F)(F)F)c2Cl)CCS1(=O)=O`: the concentration for half-maximal inhibition (IC50) was 10 nM.
As for `CN1C(=O)CC[C@H]1C(=O)NCc1cccc(C(F)(F)F)c1C#N`, the IC50 was 6.31 nM.
In the case of `Cn1nccc1CC(=O)NCc1cccc(C(F)(F)F)c1Cl`, the IC50 is 25.1 nM.
On to `CCN1C(=O)C(C)(C)C[C@H]1C(=O)NCc1cccc(C(F)(F)F)c1Cl`, for which the 50% inhibitory concentration (IC50) was 5.01 nM.
The figure for `CCN1C(=O)C(C)(C)C[C@H]1C(=O)NCc1ccc(F)c(F)c1Cl` is 39.8 nM; for `CN1C(=O)N(Cc2ccccn2)CC1C(=O)NCc1ccc(F)c(F)c1Cl` (stereo unspecified) it is 79.4 nM.
The value for `O=C1C(=O)N(c2ccccc2)CCN1Cc1ccc(F)cc1Cl` was 398 nM; that for `Cc1ccccc1N1CCN(Cc2ccc(Cl)cc2Cl)C(=O)C1=O` was 10 nM.
As to `O=C(c1ccc(F)cc1Cl)N1CCN(c2cccc3ccccc23)C(=O)C1`, the half-inhibitory concentration (IC50) is 100 nM.
For `O=C1C(=O)N(c2ccccc2F)CCN1Cc1ccc(F)cc1Cl`, the IC50 was 126 nM.
Consider `Cc1cccc(N2CCN(Cc3ccc(F)cc3Cl)C(=O)C2=O)c1C`, for which the half-inhibitory concentration (IC50) was 5.01 nM.
On to `COc1ccccc1N1CCN(Cc2ccc(F)cc2Cl)C(=O)C1=O`, for which the IC50 is 50.1 nM.
Take `Cc1cccc(N2CCN(Cc3ccc(F)cc3Cl)C(=O)C2=O)c1`: the IC50 was 158 nM.
For `COc1cccc(N2CCN(Cc3ccc(F)cc3Cl)C(=O)C2=O)c1`, the IC50 was 158 nM.
On to `O=C1C(=O)N(c2ccccc2Cl)CCN1Cc1ccc(F)cc1Cl`, for which the IC50 was 20 nM.
`Cc1ccccc1N1CCN(Cc2ccc(F)cc2Cl)C(=O)C1=O`: the IC50 was 50.1 nM.
The value for `Cc1ccccc1N1CCN(Cc2ccccc2Cl)C(=O)C1=O` was 126 nM; that for `Cc1ccccc1N1CCN(Cc2ccccc2F)C(=O)C1=O` was 1000 nM; that for `Cc1ccccc1N1CCN(Cc2ccc(F)c(F)c2F)C(=O)C1=O` was 251 nM.
With `Cn1nccc1CC(=O)NCc1ccc(F)cc1Cl`, the IC50 is 251 nM.
As for `Cn1nccc1CC(=O)NCc1ccc(F)c(F)c1Cl`, the IC50 was 158 nM.
As for `Cn1nccc1CC(=O)NCc1ccc(Cl)cc1Cl`, the IC50 is 126 nM.
For the compound `Cn1ncc(Cl)c1CC(=O)NCc1ccc(F)c(F)c1Cl`, the 50% inhibitory concentration (IC50) was 31.6 nM.
In the case of `Cn1ncc(Cl)c1CC(=O)NCc1ccc(Cl)cc1Cl`, the IC50 is 12.6 nM.
On to `Cc1ccccc1N1CCN(Cc2cccc(Cl)c2Cl)C(=O)C1=O`, for which the half-maximal inhibitory concentration (IC50) was 25.1 nM.
Regarding `Cn1ncc(F)c1CC(=O)NCc1ccc(F)cc1Cl`, the IC50 was 126 nM.
With `Cn1ncc(F)c1CC(=O)NCc1ccc(F)c(F)c1Cl`, the IC50 was 100 nM.
The value for `Cn1ncc(F)c1CC(=O)NCc1ccc(Cl)cc1Cl` was 50.1 nM; that for `Cc1ccccc1N1CCN(Cc2ccc(F)cc2C(F)(F)F)C(=O)C1=O` was 126 nM.
For the compound `Cc1ccccc1N1CCN(Cc2cccc(C(F)(F)F)c2Cl)C(=O)C1=O`, the IC50 is 39.8 nM.
